Experimental data reported in article PMC10461224, “Development of an Affinity-Based Probe to Profile Endogenous Human Adenosine A3 Receptor Expression” (Journal of Medicinal Chemistry, 2023).
Marks after values point to notes of the source that are not given here. Values belong to the molecule of their own block, whether it stands above or below them.

Columns and labels:
hA3AR [1] = biological target: T1, hA3AR (Homo sapiens, UniProt P0DMS8); test: Wash-out assay, [3H]PSB-11 binding after washing; conditions: 1 μM compound, pre-incubated 2 h at 25 °C, washed 4 times
T1 construct: expressed in transfected cells; host or cells: CHO cells (CHOhA3AR), gift of Prof; K.N. Klotz, University of Würzburg; used as membrane fractions or live cells
T1 sequence (P0DMS8 1-318): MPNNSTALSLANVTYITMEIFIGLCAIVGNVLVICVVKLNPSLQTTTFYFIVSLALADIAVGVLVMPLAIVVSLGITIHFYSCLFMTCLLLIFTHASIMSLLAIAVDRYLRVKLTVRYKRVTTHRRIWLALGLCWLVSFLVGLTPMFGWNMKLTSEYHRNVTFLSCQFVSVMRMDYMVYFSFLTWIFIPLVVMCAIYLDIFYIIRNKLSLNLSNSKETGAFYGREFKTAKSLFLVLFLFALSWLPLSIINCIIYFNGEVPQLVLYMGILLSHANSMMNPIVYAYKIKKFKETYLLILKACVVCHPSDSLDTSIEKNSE
Protocol: 200 μL assay buffer (50 mM Tris–HCl, pH 8.0, 10 mM MgCl2, 1 mM EDTA and 0.01% CHAPS), 100 μL assay buffer containing the competing ligand (final concentration: 1 μM), and 100 μL of CHOhA3AR membrane fractions (100 μg protein) were combined and pre-incubated for 2 h at 25 °C while shaking. The ‘4× washed’ samples were centrifuged (5 min, 13,000 rpm, 4 °C), and the supernatant was removed. The resulting pellet was dissolved in 1 mL of assay buffer and incubated for 10 min at 25 °C while shaking. The ‘4× washed’ samples were then again centrifuged (2 min, 13,000 rpm, 4 °C), the supernatant was removed, and the resulting pellet was dissolved in 1 mL of assay buffer. The latter washing steps were repeated two times (four times washing total), and the final pellet was dissolved in 300 μL assay buffer. The radioligand (10 nM [^3H]PSB-11) in 100 μL of assay buffer was added to all samples, and the samples were incubated at 25 °C for 1 h. Nonspecific binding was determined in the presence of 100 μM NECA. Incubations were terminated by addition of 1 mL of ice-cold washing buffer (50 mM Tris–HCl, pH 8.0, 10 mM MgCl2, 1 mM EDTA) and rapid vacuum filtration through prewetted 96-well GF/B filter plates using a Brandel harvester. Filters were subsequently washed 5 times with ice-cold wash buffer. The plates were dried under vacuum, and a MicroscintTM-20 cocktail (PerkinElmer) was added subsequently. After 3 h, the filter-bound radioactivity was determined using a 2450 MicroBeta Microplate Counter (PerkinElmer).

hA2BAR = biological target: hA2BAR; design: method as in PMID 35395239; conditions: taken from previous experiments ref 71; read-out: KD at CHO-spap-hA2BAR membranes; cited from earlier work
hA1AR = biological target: T2, hA1AR (Homo sapiens, UniProt P30542); test: Full curve displacement assays on the hA1AR; type: binding; conditions: from full curve displacement assays (Table S1)
T2 construct: expressed in transfected cells; host or cells: CHO cells (CHOhA1AR), gift of Prof; S.J. Hill, University of Nottingham; membrane fractions
T2 sequence (P30542 1-326): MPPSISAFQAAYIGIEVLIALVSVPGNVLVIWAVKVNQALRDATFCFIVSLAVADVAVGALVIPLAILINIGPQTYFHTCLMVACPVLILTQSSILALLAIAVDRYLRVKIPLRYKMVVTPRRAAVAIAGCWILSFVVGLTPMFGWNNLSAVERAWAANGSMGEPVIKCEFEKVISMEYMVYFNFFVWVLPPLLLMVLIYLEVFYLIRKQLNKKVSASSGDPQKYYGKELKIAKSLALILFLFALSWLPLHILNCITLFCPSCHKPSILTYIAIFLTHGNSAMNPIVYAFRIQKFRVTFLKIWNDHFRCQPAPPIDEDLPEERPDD
Protocol: The affinity of the synthesized AfBPs was determined in radioligand binding experiments. First, single concentration displacement assays were carried out on all four human adenosine receptors, using a final probe concentration of 1 μM (Table 1). […] This quick screen indicated a good selectivity toward the hA3AR over the other human ARs, a trend that was also observed in the case of the parent compound.[34] Next, the ‘apparent’ affinities (depicted as pKi values) toward the hA3AR were determined using full curve displacement assays. To study the presumable covalent mode of action, the apparent affinity was determined with (pre-4 h) and without (pre-0 h) 4 h of pre-incubation of AfBP with hA3AR, prior to addition of radioligand. […] This difference in affinity was reflected in a shift in apparent pKi. […] To further investigate selectivity toward the hA3AR over the hA1AR, full curve displacement assays were carried out on the hA1AR.
(§1) […]. Single point displacement values shown are mean percentages of two individual experiments performed in duplicate. All pKi values shown are mean values ± SEM of three individual experiments performed in duplicate. Statistical analysis was performed using a one-way ANOVA test with multiple comparisons (****p < 0.0001).

human A2BAR (hA2BAR) = biological target: T3, human A2BAR (hA2BAR) (Homo sapiens, UniProt P29275); test: Single-point radioligand displacement, [3H]PSB-603; type: binding; conditions: 1 μM probe; CHO-spap cell membranes; co-incubated with radioligand 30 min at 25 °C; mean of two experiments
T3 construct: expressed in transfected cells; host or cells: CHO-spap cells (CHO-spap-hA2BAR), gift of S.J. Dowell, GlaxoSmithKline; membrane fractions
T3 sequence (P29275 1-332): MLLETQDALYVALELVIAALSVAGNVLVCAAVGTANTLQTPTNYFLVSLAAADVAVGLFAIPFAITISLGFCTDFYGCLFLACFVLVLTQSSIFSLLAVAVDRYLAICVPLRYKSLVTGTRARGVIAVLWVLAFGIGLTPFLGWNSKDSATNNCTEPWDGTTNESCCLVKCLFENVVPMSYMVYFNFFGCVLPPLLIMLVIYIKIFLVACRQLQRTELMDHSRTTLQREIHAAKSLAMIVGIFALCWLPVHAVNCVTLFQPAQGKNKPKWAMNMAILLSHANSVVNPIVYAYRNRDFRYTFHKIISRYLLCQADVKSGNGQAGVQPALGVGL
Protocol: (§2) Membrane aliquots containing 15 μg (CHOhA3AR), 5 μg (CHOhA1AR), or 30 μg (HEK293hA2AAR and CHO-spap-A2BAR) of protein were resuspended in assay buffer (A3AR: 50 mM Tris–HCl, pH 8.0, 10 mM MgCl2, 1 mM EDTA, 0.01% CHAPS; A1AR and A2AAR: 50 mM Tris–HCl, pH 7.4; A2BAR: 50 mM Tris–HCl, pH 7.4, 0.1% CHAPS). […] Nonspecific binding was determined in the presence of 100 μM NECA (A3AR), 100 μM CPA (A1AR), 100 μM NECA (A2AAR), and 10 μM ZM241385 (A2BAR). Incubations were terminated by rapid vacuum filtration to separate the bound and free radioligand through prewetted 96-well GF/C filter plates using a PerkinElmer Filtermate harvester. Filters were subsequently washed 12 times with ice-cold wash buffer (A3AR: 50 mM Tris–HCl, pH 8.0, 10 mM MgCl2, 1 mM EDTA; A1AR and A2AAR: 50 mM Tris–HCl, pH 7.4; A2BAR: 50 mM Tris–HCl, pH 7.4, 0.1% BSA). The plates were dried at 55 °C, and MicroscintTM-20 cocktail (PerkinElmer) was added subsequently.
(§3) Single point displacement values shown are mean percentages of two individual experiments performed in duplicate. All pKi values shown are mean values ± SEM of three individual experiments performed in duplicate.

hA3AR [2] = biological target: T1, hA3AR; test: Full curve radioligand displacement assay on the adenosine A3 receptor, [3H]PSB-11; type: binding; conditions: mean ± SEM, n=3
Protocol: Membrane aliquots containing 15 μg of protein (CHOhA3AR) were resuspended in assay buffer (50 mM Tris–HCl, pH 8.0, 10 mM MgCl2, 1 mM EDTA, 0.01% CHAPS). The competing ligand (concentrations ranging from 0.1 to 1000 nM) was added and pre-incubated with the membrane fractions for either 0 or 4 h. The radioligand (10 nM [^3H]PSB-11) was then added and incubated with the samples in a total volume of 100 μL of assay buffer for 30 min at 25 °C. Nonspecific binding was determined in the presence of 100 μM NECA. Incubations were terminated by rapid vacuum filtration through prewetted 96-well GF/C filter plates using a PerkinElmer Filtermate harvester. Filters were subsequently washed 12 times with ice-cold wash buffer (50 mM Tris–HCl, pH 8.0, 10 mM MgCl2, 1 mM EDTA). The plates were dried at 55 °C, and MicroscintTM-20 cocktail (PerkinElmer) was added subsequently. After 3 h, the filter-bound radioactivity was determined using a Tri-Carb 2810TR Liquid Scintillation Analyzer (PerkinElmer).
as §1

human A1AR (hA1AR) = biological target: T4, human A1AR (hA1AR) (Homo sapiens, UniProt P30542); test: Single-point radioligand displacement, [3H]DPCPX; type: binding; conditions: 1 μM probe; CHO cell membranes; co-incubated with radioligand 30 min at 25 °C; mean of two experiments
T4 construct: expressed in transfected cells; host or cells: CHO cells (CHOhA1AR), gift of Prof; S.J. Hill, University of Nottingham; membrane fractions
T4 sequence (P30542 1-326): T2 sequence (P30542 1-326)
Protocol: as §2, §3

human A2AAR (hA2AAR) = biological target: T5, human A2AAR (hA2AAR) (Homo sapiens, UniProt P29274); test: Single-point radioligand displacement, [3H]ZM241385; type: binding; conditions: 1 μM probe; HEK293 cell membranes; co-incubated with radioligand 30 min at 25 °C; mean of two experiments
T5 construct: expressed in transfected cells; host or cells: HEK293 cells (HEKhA2AAR), gift of Dr. J. Wang, Biogen; membrane fractions
Protocol: as §2, §3

hA3AR [3] = biological target: T1, hA3AR; test: Single-point radioligand displacement, [3H]PSB-11; type: binding; conditions: 1 μM probe; CHO cell membranes; co-incubated with radioligand 30 min at 25 °C; mean of two experiments
Protocol: as §2, §3

T5 sequence (P29274 whole entry): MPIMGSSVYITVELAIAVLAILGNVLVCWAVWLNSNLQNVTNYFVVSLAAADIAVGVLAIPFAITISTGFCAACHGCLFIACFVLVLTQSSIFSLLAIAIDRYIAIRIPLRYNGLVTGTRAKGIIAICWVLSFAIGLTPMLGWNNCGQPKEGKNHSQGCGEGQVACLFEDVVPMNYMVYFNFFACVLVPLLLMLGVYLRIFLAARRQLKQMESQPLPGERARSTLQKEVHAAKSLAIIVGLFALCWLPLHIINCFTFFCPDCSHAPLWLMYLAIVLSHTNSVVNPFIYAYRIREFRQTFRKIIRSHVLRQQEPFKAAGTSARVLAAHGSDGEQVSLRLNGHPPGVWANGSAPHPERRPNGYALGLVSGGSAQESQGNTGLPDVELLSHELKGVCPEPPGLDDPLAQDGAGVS

- binding to hA3AR after wash-out ([3H]PSB-11 binding recovery) (hA3AR [1]): full recovery of radioligand binding
Compound: CCCn1c(=O)c2c(nc3cc(OC)ccn32)n(CCCNC(=O)c2ccc(S(C)(=O)=O)cc2)c1=O [LUF7714, reference compound]

Compound: CCCn1c(=O)[nH]c2nc(-c3ccc(S(=O)(=O)N4CCN(c5ccc(Cl)cc5)CC4)cc3)[nH]c2c1=O [[^3H]PSB603]
- Kd (hA2BAR): 1.7 nM

- selectivity toward the hA3AR over the hA1AR (hA1AR): > 7 fold
Compound: COc1ccn2c(c1)nc1c2c(=O)[nH]c(=O)n1CCCNC(=O)OC(C)(C)C [compound 11, tert-Butyl-(3-(8-methoxy-2,4-dioxo-3,4-dihydropyrido[2,1-f]purin-1(2H)-yl)propyl)carbamate]

Compound: C#CCn1c(=O)c2c(nc3cc(OC)ccn32)n(CCCNC(=O)c2ccc(S(=O)(=O)F)cc2)c1=O [compound 13, 4-((3-(8-Methoxy-2,4-dioxo-3-(prop-2-yn-1-yl)-3,4-dihydropyrido[2,1-f]purin-1(2H)-yl)propyl)carbamoyl)benzenesulfonyl fluoride]
- % specific [3H]PSB-603 displacement, hA2BAR (human A2BAR (hA2BAR)): 5%
- apparent pKi (pre-0 h) (hA3AR [2]; CHO-hA3AR membranes, 25 °C, 0.5 h co-incubation of probe and radioligand, no pre-incubation): 7.17 ± 0.04
- apparent pKi (pre-4 h) (hA3AR [2]; CHO-hA3AR membranes, 25 °C, 4 h pre-incubation with probe then 0.5 h co-incubation with radioligand): 8.38 ± 0.05 ^d
- fold change, ratio Ki(0 h)/Ki(4 h) (hA3AR [2]; hA3AR): 16.6 ± 3.5
- % specific [3H]DPCPX displacement, hA1AR (human A1AR (hA1AR)): 25%
- % specific [3H]ZM241385 displacement, hA2AAR (human A2AAR (hA2AAR)): 8%
- binding to hA3AR after wash-out ([3H]PSB-11 binding recovery) (hA3AR [1]): persistent binding
- % specific [3H]PSB-11 displacement, hA3AR (hA3AR [3]): 92%
